Biological target: T1, P2X7 receptor (Homo sapiens, UniProt Q99572)
T1 construct: expressed in transfected cells; host or cells: HEK.293 cells, transient transfection with Lipofectamine LTX
T1 sequence (Q99572 1-595): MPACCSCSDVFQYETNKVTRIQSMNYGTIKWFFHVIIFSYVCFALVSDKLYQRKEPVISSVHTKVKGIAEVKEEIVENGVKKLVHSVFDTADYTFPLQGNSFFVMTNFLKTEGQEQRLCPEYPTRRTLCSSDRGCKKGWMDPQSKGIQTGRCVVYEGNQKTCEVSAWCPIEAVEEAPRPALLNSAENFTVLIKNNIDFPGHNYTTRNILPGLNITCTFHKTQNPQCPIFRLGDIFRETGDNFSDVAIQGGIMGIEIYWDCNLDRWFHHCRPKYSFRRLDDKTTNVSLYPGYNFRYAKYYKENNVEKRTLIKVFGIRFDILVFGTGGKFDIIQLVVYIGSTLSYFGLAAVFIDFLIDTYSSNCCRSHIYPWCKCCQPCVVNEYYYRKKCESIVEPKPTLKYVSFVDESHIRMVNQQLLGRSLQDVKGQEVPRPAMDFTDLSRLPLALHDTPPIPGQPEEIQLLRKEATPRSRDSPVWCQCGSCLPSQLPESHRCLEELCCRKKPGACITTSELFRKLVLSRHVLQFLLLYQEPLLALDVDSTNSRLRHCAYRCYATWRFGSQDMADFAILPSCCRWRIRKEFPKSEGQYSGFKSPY
Assay: Pore-forming (Yo Pro-1 dye uptake) assay in P2X7 transfected HEK.293 cells, Bz-ATP agonist
Format: cell-based
Conditions: Bz-ATP 30 μM, Yo Pro-1 1 μM, triplicate
Excerpt: A non-radioactive analogue of the Imaging Agent illustrated in Table I was screened in a P2X7 receptor functional assay. This assay is described in Example 3 and is based upon the ability of the P2X7 receptor to form a non-selective pore in P2X7 transfected HEK.293 cells upon activation with an agonist, thereby allowing dye to permeate the cells. The non selective P2X channel antagonist used as a reference inhibitor for the evaluation of the non-radioactive compound of the invention was pyridoxal-phosphate-6-azophenyl-2′,4′-disulfonate (PPADS), and the results of the assay are provided in Table I above.
The assay method used was based on the ability of the DNA binding dye, Yo Pro-1 (quinolinium, 4[3-methyl-2(3H)-benzoxazolylidene)methyl]-1-[3-(trimethyl-ammonio)propyl]-dioxide) to enter through the dilated or “large pore form” of the P2X7 receptor and to bind to intracellular DNA/RNA whereupon it increases fluorescence intensity. Yo Pro-1 was therefore used to quantify inhibition of P2X7 function. This assay was based on the methods published by Michel et al., (B.J. Pharmacol 1998; 125: 1194-1201).
Initially, HEK.293 cells were transiently transfected using LipofectamineTMLTX (Invitrogen) for 72 hrs with P2X7 cDNA. 48 hours prior to use the cells were seeded into poly-D-lysine coated 96-well black-walled, clear bottomed plates, at a density of 30,000 cells/well. Stock solutions of test compound were prepared at a concentration of 40 mM in 100% DMSO.
Following the 48 hour incubation the culture medium was removed from the transfected cells, the cells were washed once and placed in pre-warmed sucrose assay buffer (Sucrose: 280 mM, KCL 5 mM, CaCl2: 0.5 mM, glucose: 10 mM, HEPES: 10 mM, N-methyl-D-glucamine: 10 mM; pH7.4). […] The fluorescence was then read at 485 nm excitation and 530 nm emission.
The non-selective P2X channel antagonist pyrdoxalphosphate-6-azophenyl-2′4′-disulphonic acid (PPADS) was used as a reference inhibitor in the assay. […] For each compound data set, a percentage inhibition value was calculated based on the three assay points generated.

Row | SMILES | % inhibition (test compound at 10 μM) [%] | % inhibition (test compound at 100 μM (so in the source)) [%]
1 | Cc1nc(N=Nc2ccc(S(=O)(=O)O)cc2S(=O)(=O)O)c(COP(=O)(O)O)c(C=O)c1O [PPADS, pyridoxal-phosphate-6-azophenyl-2′,4′-disulfonate, reference compound] | 70 | –
2 | Oc1ccccc1CNc1ncnn1-c1cccc(Cl)c1Cl [imaging agent 1] | 77.0 | 68.0
